SMILES strings stand for the structures.

Assay [1] has as its system HepG2 cells. Kind of assay: Colony formation assay with ectopic PGF expression. The class given is cell-based, human. From the text:
The placental growth factor (PGF) coding sequence was amplified using gene specific primers and then subcloned into a lentiviral vector pSL4-Flag expressing the puromycin resistance gene to generate pSL4-Flag-PGF vector with a CMV promoter driving PGF expression. The primers used to amplify the PGF coding sequence, check the amplified DNA fragment and verify its ectopic expression are listed in Supplementary Table S1. Lentiviruses carrying pSL4-Flag-PGF and an empty pSL4-Flag vector were produced and used to infect HCC cells based on our previously reported procedure ([Wan et al., 2012]). Ectopic PGF expression was achieved by infecting HCC cells with pSL4-Flag-PGF lentivirus, and the control cells were produced by infecting HCC cells using lentivirus carrying the empty pSL4-Flag-vector.
HepG2 cells were cultured overnight into 12-well plates with a density of 1×10^3 cells/well. The cells were then individually infected by pSL4-Flag-vector and pSL4-Flag-PGF lentiviruses. After 24 h, the cells were cultured in a complete medium containing 150 µM of BCP or an equal volume of ethanol for 10 days. The plates were washed using ice-cold PBS three times and cells were fixed using 70% ice-cold methanol for 20 min. […] The stained wells were photographed and clonogenicity was analyzed using ImageJ software.

The subject of assay [2] is HepG2 cells. The assay can be described thus: Transwell migration assay. It is filed as cell-based. The following applies: Homo sapiens, 48 h, vs ethanol control, read-out: inhibition of cell migration. Here is the method: (§1) The transwell migration and invasion experiments were conducted using a 24-well plate (cat# 3422, Corning). HepG2 and SMMC-7721 cells (5 × 10^4) were suspended in 100 µL of medium supplied with ethanol, 150 and 300 µM of BCP and added to the top chamber, while 600 µL of complete medium containing 10% FBS was added into the lower chamber. After 48 h of incubation at 37°C, the cells from the top chamber were carefully removed using a cotton swab, while the cells penetrated through the membrane were fixed using 600 µL of 70% methanol for 15 min. To stain the cells, 600 µL of 0.2% crystal violet was used to treat the Transwell inserts for 10 min, followed by washing and drying, and the membranes of the inserts were photographed using an inverted microscope (Leica DM13000 B). The positive staining area was calculated using ImageJ software.

Assay [3] relates to HepG2 cells. The assay can be described thus: Matrigel transwell invasion assay. The following applies: 48 h, vs control. The class given is cell-based, human. Here is the method:
as §1
(§2) For invasion assay, Matrigel (Corning, cat# 356234) was used to precoat the top chamber. Cells (8 × 10^4) were added to the top chamber and the following procedure was the same as the migration assay described above.

Assay [4] deals with SMMC-7721 cells. The assay can be described thus: Matrigel transwell invasion assay. The note with it: 48 h, vs control. The class given is cell-based, human. The procedure: as §1, §2
The test system of assay [5] is HepG2 cells. Kind of assay: CCK8 cell viability assay. It is filed as cell-based, human. The following applies: Homo sapiens; HepG2, 48 h, individual treatment; read-out: IC50 (half maximal inhibitory concentration). Here is the method:
(§3) Cell viability assay using the CCK8 reagent (Bimake, Shanghai, China) was conducted according to the manufacturer’s instructions. The cell proliferation data were used to calculate the cell viability. Briefly, HepG2, SMMC-7721, and HL-7702 cells with a density of 5 × 10^3 cells/well were seeded into each well of 96-well plates and incubated overnight. […] After 48 h, 10 µL of CCK8 reagent was added to each well, followed by 2 h incubation at 37°C and measurement of absorbance at 450 nm using a microplate reader (Molecular Devices, LLC.). […] The effects of the combinatorial inhibition were visualized by isobologram analyses ([Tallarida, 2001]). […] A line was drawn to link the two IC50 points. […] The dots above, on, or below the line indicate the “antagonistic,” “additive” and “synergistic” effects, respectively. The same method was used to obtain the CI value for the cotreatment of BCP and DDP.

The subject of assay [6] is SMMC-7721 cells. Kind of assay: CCK8 cell viability assay. It is filed as cell-based, human. The following applies: Homo sapiens; SMMC-7721, 48 h, individual treatment; read-out: IC50 (half maximal inhibitory concentration). The procedure: as §3
Assay [7] relates to HL-7702 normal liver cells. Kind of assay: CCK8 cell viability assay. It is filed as cell-based, human. The following applies: Homo sapiens, L02; HL-7702, 48 h, individual treatment; read-out: IC50 (half maximal inhibitory concentration). The procedure: as §3

Consider `C=C1CC/C=C(\C)CC[C@@H]2[C@@H]1CC2(C)C` [BCP, β-caryophyllene], for which the colony formation result with HepG2 cells [1] (HepG2 carrying pSL4-vector, 150 µM BCP 10 days, compared to control without BCP) was “significantly decreased colonies”; in the assay with HepG2 cells [1] (HepG2 expressing ectopic PGF vs empty vector, same BCP treatment (150 µM, 10 days)), “more colonies”. Besides, the inhibition at 150 µM with HepG2 cells [2] (HepG2, 150 µM) stood at 49%. The inhibition at 300 µM in the assay on HepG2 cells [2] (HepG2, 300 µM) came to 75.6%. Moreover, the “decrease of Matrigel infiltration (invasion)” value in the assay with HepG2 cells [3] (HepG2, 150 µM) was 46.3%; with HepG2 cells [3] (HepG2, 300 µM) it was 70.03%; in the assay on SMMC-7721 cells [4] (SMMC-7721, 150 µM), 17.67%; in the assay with SMMC-7721 cells [4] (SMMC-7721, 300 µM), 49.64%. The figures for the IC50 (in the assay on HepG2 cells [5]; in the assay on SMMC-7721 cells [6]; in assay [7]) were 194 ± 3.2 µM, 334.5 ± 2.96 µM and 610.9 ± 2.72 µM, respectively.
